According to patent publication EP0908457B1, “3-(1,2-benzisothiazol- and isoxazol-5-Y1)-2,4(1H,3H)-pyrimidinedione or thione and 3-(1,2-benzisothiazol- and isoxazol-5-y1)-4(3H)-pyrimidinone or thione herbicidal agents” (BASF AKTIENGESELLSCHAFT, priority 1997, dated 1999):

Legend:
[1] = system: Echinochloa oryzoides (Ard.) Fritsch.; test: Preemergence weed control under flooded paddy conditions, ECHORC (Watergrass (Calif.)); assay type: in vivo; conditions: flooded paddy; for ECHORC: preemergence weeds, herbicidal effect rating 0-9, three to four weeks after treatment; for ECHORC herbicidal effect rating / herbicidal effect rating, ECHORC: preemergence; for ECHORC herbicidal effect rating: rated three to four weeks after treatment; for herbicidal effect rating, ECHORC: rated 3-4 weeks after treatment
[2] = system: Cyperus serotinus, Rottb.; test: Preemergence weed control under flooded paddy conditions, CYPSE (Flatsedge); assay type: in vivo; conditions: for CYPSE: preemergence weeds, herbicidal effect rating 0-9, three to four weeks after treatment; for CYPSE herbicidal effect rating / herbicidal effect rating, CYPSE: preemergence; for CYPSE herbicidal effect rating: rated three to four weeks after treatment; for herbicidal effect rating, CYPSE: rated 3-4 weeks after treatment
[3] = system: Monochoria vaginalis, Presl.; test: Preemergence weed control under flooded paddy conditions, MOOVA (Monochoria); assay type: in vivo; conditions: flooded paddy; for MOOVA: preemergence weeds, herbicidal effect rating 0-9, three to four weeks after treatment; for MOOVA herbicidal effect rating / herbicidal effect rating, MOOVA: preemergence; for MOOVA herbicidal effect rating: rated three to four weeks after treatment; for herbicidal effect rating, MOOVA: rated 3-4 weeks after treatment
[4] = system: Oryza sativa, (L.) Tebonnet; test: Rice tolerance to post-transplant applications under flooded paddy conditions (Example 187), ORYSAT (Rice, Tebonnet); conditions: for ORYSAT: herbicidal effect rating 0-9, three to four weeks after treatment; for ORYSAT herbicidal effect rating: rated three to four weeks after treatment; for herbicidal effect rating ORYSAT: rated 3-4 weeks after treatment; on herbicidal effect rating ORYSAT: meaning of each grade not given here
Sagittaria pygmaea, L. = test: Preemergence weed control under flooded paddy conditions, SAGPY (Arrowhead (Pygmaea)); assay type: in vivo; conditions: flooded paddy; for SAGPY: preemergence weeds, herbicidal effect rating 0-9, three to four weeks after treatment; for SAGPY herbicidal effect rating / herbicidal effect rating, SAGPY: preemergence; for SAGPY herbicidal effect rating: rated three to four weeks after treatment; for herbicidal effect rating, SAGPY: rated 3-4 weeks after treatment
Cyperus iria = test: Preemergence weed control under flooded paddy conditions, CYPIR (Rice Flatsedge); assay type: in vivo; conditions: flooded paddy; for CYPIR: preemergence weeds, herbicidal effect rating 0-9, three to four weeks after treatment; for CYPIR herbicidal effect rating / herbicidal effect rating, CYPIR: preemergence; for CYPIR herbicidal effect rating: rated three to four weeks after treatment; for herbicidal effect rating, CYPIR: rated 3-4 weeks after treatment

Cn1c(C(F)(F)F)cc(=O)n(-c2ccc3snc(C(=O)Nc4nc(C(F)(F)F)c(Cl)s4)c3c2)c1=O [Example 439, 1,2-Benzisothiazole-3-carboxamide, N-[5-chloro-4-(trifluoromethyl)thiazol-2-yl]-5-[3,6-dihydro-3-methyl-2,6-dioxo-4-(trifluoromethyl)-1(2H)-pyrimidinyl]-]
3.0: ECHORC ([1]; 0.0620 kg/ha) | SAGPY (Sagittaria pygmaea, L.; 0.2500 kg/ha) | CYPIR (Cyperus iria; 0.0620 kg/ha)
0.0: CYPSE ([2]; 0.0320 kg/ha) | CYPSE ([2]; 0.0620 kg/ha) | CYPSE ([2]; 0.1250 kg/ha) | CYPSE ([2]; 0.2500 kg/ha) | ORYSAT ([4]; 0.0320 kg/ha) | ORYSAT ([4]; 0.0620 kg/ha) | ORYSAT ([4]; 0.1250 kg/ha) | ORYSAT ([4]; 0.2500 kg/ha) | SAGPY (Sagittaria pygmaea, L.; 0.0320 kg/ha) | SAGPY (Sagittaria pygmaea, L.; 0.0620 kg/ha) | SAGPY (Sagittaria pygmaea, L.; 0.1250 kg/ha)
5.0: MOOVA ([3]; 0.0320 kg/ha) | CYPIR (Cyperus iria; 0.2500 kg/ha)
1.0: CYPIR (Cyperus iria; 0.0320 kg/ha)
4.0: CYPIR (Cyperus iria; 0.1250 kg/ha)
6.0: ECHORC ([1]; 0.1250 kg/ha) | ECHORC ([1]; 0.2500 kg/ha) | MOOVA ([3]; 0.0620 kg/ha)
2.0: ECHORC ([1]; 0.0320 kg/ha)
7.0: MOOVA ([3]; 0.1250 kg/ha) | MOOVA ([3]; 0.2500 kg/ha)

Cn1c(C(F)(F)F)cc(=O)n(-c2ccc3snc(-c4ccc(OCC(=O)O)cc4)c3c2)c1=O [Example 281, Acetic acid, {p-{5-[3,6-dihydro-3-methyl-2,6-dioxo-4-(trifluoromethyl)-1(2H)-pyrimidinyl]-1,2-benzisothiazol-3-yl}phenoxy}-]
4.0: ORYSAT herbicidal effect rating ([4]; Rate 0.1250 kg/ha) | ORYSAT herbicidal effect rating ([4]; Rate 0.5000 kg/ha) | CYPIR herbicidal effect rating (Cyperus iria; Rate 0.0320 kg/ha)
7.1: ECHORC herbicidal effect rating ([1]; Rate 0.1250 kg/ha)
5.9: ECHORC herbicidal effect rating ([1]; Rate 0.0620 kg/ha)
2.0: ORYSAT herbicidal effect rating ([4]; Rate 0.0620 kg/ha) | SAGPY herbicidal effect rating (Sagittaria pygmaea, L.; Rate 0.1250 kg/ha)
6.0: ORYSAT herbicidal effect rating ([4]; Rate 0.2500 kg/ha)
9.0: ECHORC herbicidal effect rating ([1]; Rate 0.2500 kg/ha) | CYPSE herbicidal effect rating ([2]; Rate 0.0320 kg/ha) | CYPSE herbicidal effect rating ([2]; Rate 0.0620 kg/ha) | CYPSE herbicidal effect rating ([2]; Rate 0.1250 kg/ha) | CYPSE herbicidal effect rating ([2]; Rate 0.2500 kg/ha) | CYPSE herbicidal effect rating ([2]; Rate 0.5000 kg/ha) | MOOVA herbicidal effect rating ([3]; Rate 0.0320 kg/ha) | MOOVA herbicidal effect rating ([3]; Rate 0.0620 kg/ha) | MOOVA herbicidal effect rating ([3]; Rate 0.1250 kg/ha) | MOOVA herbicidal effect rating ([3]; Rate 0.2500 kg/ha) | MOOVA herbicidal effect rating ([3]; Rate 0.5000 kg/ha) | SAGPY herbicidal effect rating (Sagittaria pygmaea, L.; Rate 0.5000 kg/ha) | CYPIR herbicidal effect rating (Cyperus iria; Rate 0.1250 kg/ha) | CYPIR herbicidal effect rating (Cyperus iria; Rate 0.2500 kg/ha) | CYPIR herbicidal effect rating (Cyperus iria; Rate 0.5000 kg/ha)
8.0: SAGPY herbicidal effect rating (Sagittaria pygmaea, L.; Rate 0.2500 kg/ha) | CYPIR herbicidal effect rating (Cyperus iria; Rate 0.0620 kg/ha)
0.0: ECHORC herbicidal effect rating ([1]; Rate 0.0320 kg/ha) | ORYSAT herbicidal effect rating ([4]; Rate 0.0320 kg/ha) | SAGPY herbicidal effect rating (Sagittaria pygmaea, L.; Rate 0.0320 kg/ha) | SAGPY herbicidal effect rating (Sagittaria pygmaea, L.; Rate 0.0620 kg/ha)
7.0: ECHORC herbicidal effect rating ([1]; Rate 0.5000 kg/ha)

CNC(=O)COc1ccccc1-c1nsc2ccc(-n3c(=O)cc(C(F)(F)F)n(C)c3=O)cc12 [Example 562, Acetamide, 2-{o-{5-[3,6-dihydro-3-methyl-2,6-dioxo-4-(trifluoromethyl)-1(2H)-pyrimidinyl]-1,2-benzisothiazol-3-yl}phenoxy}-N-methyl-]
2.0: herbicidal effect rating ORYSAT ([4]; Rate 0.0320 kg/ha) | herbicidal effect rating, CYPIR (Cyperus iria; Rate 0.0320 kg/ha)
9.0: herbicidal effect rating, ECHORC ([1]; Rate 0.2500 kg/ha) | herbicidal effect rating, ECHORC ([1]; Rate 0.5000 kg/ha) | herbicidal effect rating, CYPSE ([2]; Rate 0.1250 kg/ha) | herbicidal effect rating, CYPSE ([2]; Rate 0.2500 kg/ha) | herbicidal effect rating, CYPSE ([2]; Rate 0.5000 kg/ha) | herbicidal effect rating, MOOVA ([3]; Rate 0.0320 kg/ha) | herbicidal effect rating, MOOVA ([3]; Rate 0.0620 kg/ha) | herbicidal effect rating, MOOVA ([3]; Rate 0.1250 kg/ha) | herbicidal effect rating, MOOVA ([3]; Rate 0.2500 kg/ha) | herbicidal effect rating, MOOVA ([3]; Rate 0.5000 kg/ha) | herbicidal effect rating ORYSAT ([4]; Rate 0.2500 kg/ha) | herbicidal effect rating, CYPIR (Cyperus iria; Rate 0.1250 kg/ha) | herbicidal effect rating, CYPIR (Cyperus iria; Rate 0.2500 kg/ha)
6.0: herbicidal effect rating ORYSAT ([4]; Rate 0.5000 kg/ha)
2.7: herbicidal effect rating, ECHORC ([1]; Rate 0.0320 kg/ha)
5.1: herbicidal effect rating, ECHORC ([1]; Rate 0.0620 kg/ha) | herbicidal effect rating, ECHORC ([1]; Rate 0.1250 kg/ha)
7.0: herbicidal effect rating, SAGPY (Sagittaria pygmaea, L.; Rate 0.2500 kg/ha) | herbicidal effect rating, CYPIR (Cyperus iria; Rate 0.0620 kg/ha)
4.0: herbicidal effect rating, CYPSE ([2]; Rate 0.0620 kg/ha) | herbicidal effect rating ORYSAT ([4]; Rate 0.1250 kg/ha)
5.0: herbicidal effect rating, SAGPY (Sagittaria pygmaea, L.; Rate 0.1250 kg/ha)
3.0: herbicidal effect rating ORYSAT ([4]; Rate 0.0620 kg/ha) | herbicidal effect rating, CYPIR (Cyperus iria; Rate 0.5000 kg/ha)
0.0: herbicidal effect rating, SAGPY (Sagittaria pygmaea, L.; Rate 0.0320 kg/ha) | herbicidal effect rating, SAGPY (Sagittaria pygmaea, L.; Rate 0.0620 kg/ha) | herbicidal effect rating, SAGPY (Sagittaria pygmaea, L.; Rate 0.5000 kg/ha)

Cn1c(C(F)(F)F)cc(=O)n(-c2ccc3snc(COC4C=CCCC4)c3c2)c1=O (centres unmarked) [Example 209, 3-{3-[(2-Cyclohexen-1-yloxy)methyl]-1,2-benzisothiazol-5-yl}-1-methyl-6-(trifluoromethyl)-2,4(1H,3H)-pyrimidinedione]
1.0: ECHORC herbicidal effect rating ([1]; Rate 0.0313 kg/ha)
3.0: ORYSAT herbicidal effect rating ([4]; Rate 0.0313 kg/ha) | ORYSAT herbicidal effect rating ([4]; Rate 0.0625 kg/ha)
2.0: ECHORC herbicidal effect rating ([1]; Rate 0.0625 kg/ha) | ECHORC herbicidal effect rating ([1]; Rate 0.1250 kg/ha) | CYPIR herbicidal effect rating (Cyperus iria; Rate 0.0313 kg/ha)
8.0: CYPIR herbicidal effect rating (Cyperus iria; Rate 0.1250 kg/ha)
4.0: ORYSAT herbicidal effect rating ([4]; Rate 0.1250 kg/ha) | CYPIR herbicidal effect rating (Cyperus iria; Rate 0.0625 kg/ha)
0.0: CYPSE herbicidal effect rating ([2]; Rate 0.0313 kg/ha) | CYPSE herbicidal effect rating ([2]; Rate 0.0625 kg/ha) | CYPSE herbicidal effect rating ([2]; Rate 0.1250 kg/ha) | MOOVA herbicidal effect rating ([3]; Rate 0.0313 kg/ha) | MOOVA herbicidal effect rating ([3]; Rate 0.0625 kg/ha) | MOOVA herbicidal effect rating ([3]; Rate 0.1250 kg/ha) | SAGPY herbicidal effect rating (Sagittaria pygmaea, L.; Rate 0.0313 kg/ha) | SAGPY herbicidal effect rating (Sagittaria pygmaea, L.; Rate 0.0625 kg/ha) | SAGPY herbicidal effect rating (Sagittaria pygmaea, L.; Rate 0.1250 kg/ha)
